According to ChEMBL document CHEMBL2390909, “2-Arylpaullones are selective antitrypanosomal agents” (Eur J Med Chem, 2013):

Key:
[1] = Selectivity index, ratio of GI50 for human THP1 macrophages to GI50 for blood stage of Trypanosoma brucei rhodesiense STIB 900
[2] = Cytotoxicity against human THP1 macrophages after 48 hrs by Alamar Blue assay; format: cell-based; conditions: THP-1 macrophages
[3] = system: Trypanosoma brucei rhodesiense; assay: Antitrypanosomal activity against blood stage of Trypanosoma brucei rhodesiense STIB 900 (S704) Tanzania after 70 hrs by Alamar Blue assay; format: functional; conditions: STIB 900, 70 h

Structure (SMILES)	RatioGI50 [1]	GI50 at 48 h [2] [µM]	GI50 [3] [µM]
CC(C)(C)c1ccc2[nH]c3c(c2c1)CC(=O)Nc1ccc(C(=O)/C=C/c2ccccc2)cc1-3	>163.9	> 100	0.61
COc1ccc(-c2ccc3c(c2)-c2[nH]c4ccc(C(C)(C)C)cc4c2CC(=O)N3)cc1	>138.9	> 100	0.72
COc1cccc(-c2ccc3c(c2)-c2[nH]c4ccc(C(C)(C)C)cc4c2CC(=O)N3)c1	>62.5	> 100	1.6
CN(C)c1cccc(-c2ccc3c(c2)-c2[nH]c4ccc(C(C)(C)C)cc4c2CC(=O)N3)c1	40.8	93.9	2.3
CC(C)(C)c1ccc2[nH]c3c(c2c1)CC(=O)Nc1ccc(-c2ccc4c(c2)OCO4)cc1-3	>131.6	> 100	0.76
CC(C)(C)c1ccc2[nH]c3c(c2c1)CC(=O)Nc1ccc(-c2ccc(N4CCOCC4)cc2)cc1-3	156.9	80	0.51
CC(C)(C)c1ccc2[nH]c3c(c2c1)CC(=O)Nc1ccc(CCC(=O)c2ccccc2)cc1-3	>88.8	> 100	2.3
CC(C)(C)c1ccc2[nH]c3c(c2c1)CC(=O)Nc1ccc(/C=C/C(=O)N2CCOCC2)cc1-3	3.5	13.7	3.9
CC(C)(C)c1ccc2[nH]c3c(c2c1)CC(=O)Nc1ccc(/C=C/C(=O)N2CCCCC2)cc1-3	1.3	6.2	4.7
CCN(CC)C(=O)/C=C/c1ccc2c(c1)-c1[nH]c3ccc(C(C)(C)C)cc3c1CC(=O)N2	3.7	4.1	1.1
CC(C)(C)c1ccc2[nH]c3c(c2c1)CC(=O)Nc1ccc(/C=C/C(=O)NCc2ccccc2)cc1-3	<1	0.93	3.5
CN1CCN(C(=O)/C=C/c2ccc3c(c2)-c2[nH]c4ccc(C(C)(C)C)cc4c2CC(=O)N3)CC1	<1	17.8	24.4
CC(C)(C)c1ccc2[nH]c3c(c2c1)CC(=O)Nc1ccc(/C=C/C(=O)Nc2ccccc2)cc1-3	<1	0.34	1.5
CC(C)(C)c1ccc2[nH]c3c(c2c1)CC(=O)Nc1ccc(/C=C/C(=O)Nc2cccc(Cl)c2)cc1-3	<1	0.85	1.6
CC(C)(C)c1ccc2[nH]c3c(c2c1)CC(=O)Nc1ccc(/C=C/C(=O)Nc2ccc(Cl)cc2)cc1-3	<1	0.47	2.5
Cc1ccc(NC(=O)/C=C/c2ccc3c(c2)-c2[nH]c4ccc(C(C)(C)C)cc4c2CC(=O)N3)cc1	<1	1.3	1.7

Structure (SMILES)	RatioGI50 [1]	GI50 at 48 h [2] [µM]	GI50 [3] [µM]
COc1ccc(NC(=O)/C=C/c2ccc3c(c2)-c2[nH]c4ccc(C(C)(C)C)cc4c2CC(=O)N3)cc1	<1	0.36	1.5
CC(C)(C)c1ccc2[nH]c3c(c2c1)CC(=O)Nc1ccc(-c2ccccc2)cc1-3	>55.6	> 100	1.8
COCCc1ccc(OCc2cccc(-c3ccc4c(c3)-c3[nH]c5ccc(C(C)(C)C)cc5c3CC(=O)N4)c2)cc1	7.6	12.9	1.7
CC(C)(C)c1ccc2[nH]c3c(c2c1)CC(=O)Nc1ccc(-c2ccc(C(F)(F)F)cc2)cc1-3	21.2	55.1	2.6
CC(C)(C)c1ccc2[nH]c3c(c2c1)CC(=O)Nc1ccc(-c2ccc(OC(F)(F)F)cc2)cc1-3	>33.3	> 100	3
CC(C)(C)c1ccc2[nH]c3c(c2c1)CC(=O)Nc1ccc(/C=C/C(=O)c2ccccc2)cc1-3	4.4	17.6	4
COc1ccc(C(=O)/C=C/c2ccc3c(c2)-c2[nH]c4ccc(C(C)(C)C)cc4c2CC(=O)N3)cc1	2.7	32.6	12.2
CC(C)(C)c1ccc2[nH]c3c(c2c1)CC(=O)Nc1ccc(/C=C/C(=O)c2ccc(Cl)cc2)cc1-3	2.2	40.8	18.3
CC(C)(C)c1ccc2[nH]c3c(c2c1)CC(=O)Nc1ccc(/C=C/C(=O)c2ccco2)cc1-3	2.3	1.3	0.57
CC(C)(C)c1ccc2[nH]c3c(c2c1)CC(=O)Nc1ccc(/C=C/C(=O)c2cccnc2)cc1-3	8.7	47.9	9
COc1cc(C(=O)/C=C/c2ccc3c(c2)-c2[nH]c4ccc(C(C)(C)C)cc4c2CC(=O)N3)cc(OC)c1OC	5.6	14.7	2.6
COc1ccc(OC)c(C(=O)/C=C/c2ccc3c(c2)-c2[nH]c4ccc(C(C)(C)C)cc4c2CC(=O)N3)c1	1.8	2.2	1.2
COc1ccc(C(=O)/C=C/c2ccc3c(c2)-c2[nH]c4ccc(C(C)(C)C)cc4c2CC(=O)N3)c(OC)c1	5.8	31.4	5.4
COc1ccc(C(=O)/C=C/c2ccc3c(c2)-c2[nH]c4ccc(C(C)(C)C)cc4c2CC(=O)N3)cc1OC	2.3	9.6	4.2
CC(C)(C)c1ccc2[nH]c3c(c2c1)CC(=O)Nc1ccc(/C=C/C(=O)c2cccs2)cc1-3	3.4	3.7	1.1
CC(C)(C)c1ccc2[nH]c3c(c2c1)CC(=O)Nc1ccc(/C=C/C(=O)c2ccc(O)cc2)cc1-3	9.8	72.6	7.4
